According to PubChem BioAssay AID179 (DTP/NCI, 2004):
pEC50, pIC50: −log10 of the molar value. Calls of active or inactive are those of the source.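 Rule for the calls: active = compounds giving half or more protection of infected cells from virus-caused growth loss, again on retest; inactive = the rest.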

System: CEM cells HIV-1 protection, formazan growth assay
Assay: NCI AIDS Antiviral Assay
Details: for pIC50: measured here: growth of uninfected CEM cells
Method in brief: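 Soluble formazan readout of cell growth; CEM cells ± HIV-1; 5 drug concs. ≥50% protection → retest; ≥50% again = moderately active; reproducible 100% = confirmed active.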

O=c1sc2ccccc2n1CCSSCCn1c(=O)sc2ccccc21
pEC50: < 3.70 | pIC50: 5.04

O=C1C=CC(=O)c2cc(Sc3ccccc3)c(=O)ccc21
pEC50: < 3.91 | pIC50: 5.90

COc1cc2c(cc1OC)C(N(C)C)C(c1ccccc1)=C2Cl (configuration not stated)
pEC50: < 4.26 | pIC50: 4.48

CS1(=O)=N/C(=N\C(=O)Nc2ccccc2)c2ccccc21 (configuration not stated)
outcome: inactive

Cn1c(=O)c(C(=O)Nc2nc(C34CC5CC(CC(C5)C3)C4)cs2)c(O)c2ccccc21
pEC50: < 4.00 | pIC50: < 4.00

N#Cc1c(N2CCOCC2)ncn(-c2ccc(Cl)cc2)c1=O
pEC50: < 3.70 | pIC50: < 3.70

c1ccc(N2N=NC3C4CC(C5COCC54)C32)cc1 (configuration not stated)
pEC50: < 3.70 | pIC50: < 3.70

Cn1ncc2c(Nc3ccc(Cl)cc3)c3ccccc3nc21
outcome: inactive

O=c1nc2[nH]c3c4cccc5cccc(c3nc2c(=O)[nH]1)c54
pEC50: < 3.70 | pIC50: 6.22

CC(=O)/C(N=Nc1ccc(-n2c(C)nc3ccc(Br)cc3c2=O)cc1)=C(/C)O
pEC50: < 3.70 | pIC50: 3.83

Nc1nc(NCCOCP(=O)(O)O)c(C=O)c(=O)[nH]1
pEC50: < 3.70 | pIC50: < 3.70

CCOc1nc(-c2ccccc2)cc(-c2ccc(N3CCOCC3)cc2)c1C#N
pEC50: < 3.70 | pIC50: 3.95

COc1ccc(C2(Br)C(=O)NN=C2C)cc1 (configuration not stated)
pEC50: < 3.70 | pIC50: 4.97

Cc1nnc(Sc2nc(C#N)c(C#N)nc2Sc2nnc(C)s2)s1
pEC50: < 3.70 | pIC50: 5.09

COc1ccc(/C=C2/CSC/C(=C/c3ccc(OC)c(OC)c3)C2=O)cc1OC
pEC50: < 5.04 | pIC50: 5.31

O=[N+]([O-])c1cccnc1SSc1ncccc1[N+](=O)[O-]
pEC50: < 3.70 | pIC50: 4.01

O=C1C(Cl)N(c2c(Cl)cccc2Cl)C1c1c[nH]c2ccccc12 (configuration not stated)
pEC50: < 3.59 | pIC50: 3.94

Oc1ccccc1C=NCCN=Cc1ccccc1O.[CH3][Sn]([CH3])([Cl])[Cl]
outcome: inactive

COc1ccc(C2C(C(C)=O)=C(C)NC(C)=C2C(C)=O)cc1
pEC50: < 3.70 | pIC50: < 3.70

CCOC(=O)c1nc2c3c(ncn2n1)Oc1c(c(-c2ccccc2)nn1-c1ccccc1)C3c1ccc(Cl)cc1 (configuration not stated)
pEC50: < 3.70 | pIC50: < 3.70

CCCCC1(N=[N+]=[N-])C(=O)C2C=CC=C3c4ccccc4N(C1=O)C32 (configuration not stated)
outcome: inactive

Cc1c(CCO)c(=O)n2c([nH]c3ccccc32)c1C#N
pEC50: < 3.97 | pIC50: 4.07

O=C1/C(=C/c2ccccc2)CN(C(=O)/C=C/c2ccccc2)C/C1=C\c1ccccc1
pEC50: < 4.00 | pIC50: 4.84

CCOP(=O)(c1ccccc1)C([CH2][Sn]([CH3])([CH3])[Cl])P(=O)(OC(C)C)OC(C)C (configuration not stated)
pEC50: < 3.70 | pIC50: 5.35

COc1nc2nccnc2c(=O)n1C
pEC50: < 3.70 | pIC50: < 3.70

CC12CCC3(C1)[C@H](CC2=O)C[C@@H](OC(=O)c1ccccc1)C1C(C)(CO)CCC[C@@]13C (some centres not stated)
pEC50: < 4.35 | pIC50: 6.05

COC(=O)C(=O)C(C(=O)OC)C(=O)C(=O)Nc1c(C)cccc1C (configuration not stated)
pEC50: < 3.69 | pIC50: < 3.69

CC(CC(=O)O)C(N)C(=O)O (configuration not stated)
pEC50: < 3.70 | pIC50: < 3.70

CSc1cc(-c2ccc(Cl)cc2)s[s+]1
pEC50: 4.30 | pIC50: 3.94

CCCCCCCC(=O)OCC1OC(n2cc(F)c(=O)[nH]c2=O)C(NC(=O)OCc2ccccc2)C(OC(=O)CCCCCCC)C1O (configuration not stated)
pEC50: < 4.97 | pIC50: < 4.97

COc1ccc(C2OC(=O)c3ncccc32)cc1 (configuration not stated)
pEC50: < 3.70 | pIC50: < 3.70

CC(C)(C)NC(=O)Nc1ccccn1
pEC50: < 3.70 | pIC50: < 3.70

CCOC(=O)C12OC(OCC)(CC1(OCC)OCC)C1(CC1)C2=O (configuration not stated)
pEC50: < 3.70 | pIC50: < 3.70

CCN=Cc1c(O)c(O)c(C(C)C)c2cc(C)c(-c3c(C)cc4c(C(C)C)c(O)c(O)c(C=NCC)c4c3O)c(O)c12
outcome: inactive

CCCCc1c2c(nc3c1CCc1cc(C=O)c(N)nc1-3)/C(=C/c1ccccc1)CCC2
pEC50: < 5.36 | pIC50: < 5.36

CC(=O)CN(Cc1cc(C)c2c(c1)c1ccccc1n2Cc1ccccc1)S(=O)(=O)c1ccc(C)cc1
pEC50: < 4.71 | pIC50: < 4.71

COC(CNC(=O)CNC(=O)c1ccc(C(F)(F)F)cc1)OC
outcome: inactive

N=C1N(c2ccccc2)C(N)(N)SSC(N)(N)N1c1ccccc1
pEC50: < 3.85 | pIC50: 4.76

Cc1cc(C)c(NC(=O)c2cnccn2)c(=O)o1
pEC50: < 3.70 | pIC50: < 3.70

CNS(=O)(=O)NNS(=O)(=O)c1ccc(Br)cc1
pEC50: < 4.12 | pIC50: < 4.12

O=C1CC(c2ccccc2)C(c2ccccc2)C1=O (configuration not stated)
pEC50: < 3.89 | pIC50: 4.28

CC(=O)OC1CC2OC(Cc3ccccc32)O1 (configuration not stated)
pEC50: < 3.70 | pIC50: < 3.70

COc1cc2c(cc1OC)OC(c1c(OC)ccc(OC)c1O)CC2 (configuration not stated)
pEC50: < 4.00 | pIC50: < 4.00

CCCCCCCCCCCc1c(O)c(O)cc2nc3ccc(Sc4ccccc4)cc3nc12
pEC50: < 4.82 | pIC50: 5.34

COc1ccc2c(c1)OC1(OCCO1)[C@@H]1C2CC[C@@]2(C)C1CCC21OCCO1 (some centres not stated)
pEC50: < 4.73 | pIC50: < 4.73

CCOC(=O)c1nnsc1N/N=C\c1ccc([N+](=O)[O-])cc1
pEC50: < 3.70 | pIC50: < 3.70

O=[N+]([O-])c1ccccc1S(=O)(=O)Oc1ccc(Cl)cc1
outcome: active

COc1ccc2[nH]c3c(C)cc([N+](=O)[O-])c(C)c3c2c1
pEC50: < 3.70 | pIC50: 4.97

CC(=O)OCC1OC(SC2=N/C(=C\c3ccc(Br)s3)C(=O)N2CN2CCOCC2)C(OC(C)=O)C(OC(C)=O)C1OC(C)=O (configuration not stated)
pEC50: < 3.70 | pIC50: 5.03

CCCCNC(=O)NNC(=O)c1cc(/C=C/c2cccc([N+](=O)[O-])c2)ncn1
pEC50: < 3.75 | pIC50: < 3.75

CN1COCN=C1NC#N
pEC50: < 3.20 | pIC50: < 3.20

CCOC(=O)/C=C/CCC(C)(C)COC(C)=O
outcome: inactive

C[C@H]1O[C@@H](c2c(O)ccc3ccccc23)C[C@@H](N(C)C)C1O (some centres not stated)
pEC50: < 3.70 | pIC50: 4.01

CC(=O)Nc1c(I)c(NC(C)=O)c(I)c(C(=O)O)c1I
outcome: inactive

Cc1ccc(S(=O)(=O)N/N=C(\c2nc3ccc([N+](=O)[O-])cc3[nH]c2=O)C(O)c2ccccc2Cl)cc1 (configuration not stated)
outcome: inactive

Cc1ccc2c(c1)nc1c3ccccc3nc(-c3ccccc3N)n21
pEC50: < 4.54 | pIC50: < 4.54

CCCCCCCCCCCCCCCCNC(=O)/C(=C\c1ccc(Cl)c(Cl)c1)NC(=O)c1ccccc1
pEC50: < 4.00 | pIC50: 4.70

NNC(=S)N/N=C(\C(=O)Nc1cccc(O)c1)C1C(=O)NC(=S)NC1=O
pEC50: < 3.20 | pIC50: 3.35

O=C1c2cccc([N+](=O)[O-])c2C(=O)N1CC[P+](c1ccccc1)(c1ccccc1)c1ccccc1
pEC50: < 3.70 | pIC50: < 3.70

COc1cc2c(c3c1c(=O)c1ccccc1n3C)C=CC1(CCCCC1)O2
pEC50: < 3.70 | pIC50: 5.11

COc1ccc(C23c4ccc(OC)cc4CC2(c2ccc([N+](=O)[O-])cc2)Cc2cc(OC)ccc23)cc1 (configuration not stated)
pEC50: < 3.70 | pIC50: < 3.70

COc1ccc2c(c1)OC(C)(C)C1c3cc(O)c(OCc4ccccc4)cc3OC21 (configuration not stated)
pEC50: < 3.70 | pIC50: 4.78

CC(C(=O)N1C(=O)N(C(=O)C(C)C(O)c2ccccc2)C(c2ccccc2)C1c1ccccc1)C(O)c1ccccc1 (configuration not stated)
pEC50: < 3.70 | pIC50: 4.55

CN(C)CCNC(c1ccccc1)C(O)c1ccccc1 (configuration not stated)
outcome: inactive
